The values that follow come from patent publication US12384776B2, “Compounds and uses thereof” (Foghorn Therapeutics Inc., priority 2019, dated 2025).

Bounds are passed on as bounds.

Sequence of Nanoluciferase-BRD9 fusion protein (3×FLAG-NLuc-BRD9) in SYO-1 cells (Q9H8M2 whole entry, the tested form may be a part): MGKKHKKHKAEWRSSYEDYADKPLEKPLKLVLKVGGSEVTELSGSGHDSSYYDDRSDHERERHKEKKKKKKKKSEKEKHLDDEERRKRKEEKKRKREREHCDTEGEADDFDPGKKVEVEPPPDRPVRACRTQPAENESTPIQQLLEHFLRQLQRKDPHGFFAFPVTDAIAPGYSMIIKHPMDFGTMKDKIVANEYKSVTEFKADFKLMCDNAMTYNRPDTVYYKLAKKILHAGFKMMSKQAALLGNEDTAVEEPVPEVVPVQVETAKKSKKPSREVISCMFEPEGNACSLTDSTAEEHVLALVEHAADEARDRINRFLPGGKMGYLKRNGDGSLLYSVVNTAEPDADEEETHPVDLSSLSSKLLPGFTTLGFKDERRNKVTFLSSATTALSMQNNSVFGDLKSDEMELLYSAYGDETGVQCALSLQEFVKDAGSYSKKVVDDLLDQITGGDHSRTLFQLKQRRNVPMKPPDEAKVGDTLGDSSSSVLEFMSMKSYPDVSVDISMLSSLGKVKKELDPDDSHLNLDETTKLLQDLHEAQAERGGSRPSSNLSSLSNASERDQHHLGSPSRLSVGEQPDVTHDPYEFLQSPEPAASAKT

The target of one test is Nanoluciferase-BRD9 fusion protein (3×FLAG-NLuc-BRD9) in SYO-1 cells (Homo sapiens (Human), UniProt Q9H8M2). Description: SYO1 BRD9 NanoLuc degradation assay. Format: cell-based. Particulars: SYO-1 cells expressing 3×FLAG-NLuc-BRD9, 6 hours incubation, top dose 1 μM. The gist of the method:
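Degradation read as loss of NLuc signal after 6 h compound exposure (1 μM top final, 3-fold steps, 10 points, duplicates) in SYO-1 cells stably carrying 3×FLAG-NLuc-BRD9. Signal normalised between DMSO-treated cells and cells given 1 μM of a known BRD9 degrader.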
As a reminder, the IC50 is the concentration needed to halve the response being measured. The molecule `CNC(=O)N1CCc2c(-c3cc(OC)c(CN4CCN(CCC5CCN(c6c(F)c(F)c7c(c6F)C(=O)N(c6ccc(F)cc6F)C7=O)CC5)CC4)c(OC)c3)cn(C)c(=O)c2C1` [DD1] yielded an IC50 of under 10 nM.

The test is the same for the next values; noted with them: SYO-1 cells, 6 hours, Table 6C.
The molecule `COc1cc(-c2cn(C)c(=O)c3c2CCC3)cc(OC)c1CN1CCC2(CC1)CN(c1ccc3c(c1)C(=O)N(C1CCC(=O)NC1=O)C3)C2` (stereo not drawn) [Compound D356] gave an IC50 of under 10 nM. Still for that read-out and setting: next, `COc1cc(-c2cn(C)c(=O)c3c2COC3)cc(OC)c1CN1CCC2(CC1)CN(c1ccc3c(c1)C(=O)N(C1CCC(=O)NC1=O)C3)C2` (stereo not drawn) [Compound D357]: under 10 nM. On the same count and under the same terms, under `COc1cc(-c2cn(C)c(=O)c3c2COC3)cc(OC)c1CN1CCC2(CC1)CN(c1ccc3c(c1)C(=O)N(C1CCC(=O)NC1=O)C3=O)C2` (stereo not drawn) [Compound D358] stands under 10 nM; under `COc1cc(-c2cn(C)c(=O)c3c2COC3)cc(OC)c1CN1CCC2(CC1)CN(c1ccc3c(c1)CN(C1CCC(=O)NC1=O)C3=O)C2` (stereo not drawn) [Compound D359], under 10 nM; under `COc1cc(-c2cn(C)c(=O)c3c2CCCN3)cc(OC)c1CN1CCC2(CC1)CN(c1ccc3c(c1)CN(C1CCC(=O)NC1=O)C3=O)C2` (stereo not drawn) [Compound D360], under 10 nM. Still for that read-out and setting: under `COc1cc(-c2cn(C)c(=O)c3c2CCCN3)cc(OC)c1CN1CCC2(CC1)CN(c1ccc3c(c1)C(=O)N(C1CCC(=O)NC1=O)C3)C2` (stereo not drawn) [Compound D361] stands under 10 nM; under `COc1cc(-c2cn(C)c(=O)c3c2CCC3)cc(OC)c1CN1CC(Oc2ccc3c(c2)C(=O)N(C2CCC(=O)NC2=O)C3=O)C1` (stereo not drawn) [Compound D362], under 10 nM; under `COc1cc(-c2cn(C)c(=O)c3c2CCC3)cc(OC)c1CN1CCC2(CC1)CN(c1ccc3c(c1)C(=O)N(C1CCC(=O)NC1=O)C3=O)C2` (stereo not drawn) [Compound D363], under 10 nM. As to `COc1cc(-c2cn(C)c(=O)c3c2CCC3)cc(OC)c1CN1CCN(c2ccc3c(c2)C(=O)N(C2CCC(=O)NC2=O)C3)CC1` (stereo not drawn) [Compound D364], the IC50 was under 10 nM. On the same count and under the same terms, next, `COc1cc(-c2cn(C)c(=O)c3c2CCC3)cc(OC)c1CN1CC(C#Cc2ccc3c(c2)C(=O)N(C2CCC(=O)NC2=O)C3)C1` (stereo not drawn) [Compound D365]: under 10 nM. On the same count and under the same terms, under `COc1cc(-c2cn(C)c(=O)c3c2CCC3)cc(OC)c1CN1CCN(c2ccc3c(c2)C(=O)N(C2CCC(=O)NC2=O)C3=O)CC1` (stereo not drawn) [Compound D366] stands under 10 nM; under `COc1cc(-c2cn(C)c(=O)c3c2COC3)cc(OC)c1CN1CC(C#Cc2ccc3c(c2)C(=O)N(C2CCC(=O)NC2=O)C3)C1` (stereo not drawn) [Compound D367], under 10 nM; under `COc1cc(-c2cn(C)c(=O)c3c2COC3)cc(OC)c1CN1CC(C#Cc2ccc3c(c2)CN(C2CCC(=O)NC2=O)C3=O)C1` (stereo not drawn) [Compound D368], under 10 nM. The same measure, in the same setting: under `COc1cc(-c2cn(C)c(=O)c3c2CCC3)cc(OC)c1CN1CC(C#Cc2ccc3c(c2)CN(C2CCC(=O)NC2=O)C3=O)C1` (stereo not drawn) [Compound D369] stands under 10 nM; under `COc1cc(-c2cn(C)c(=O)c3c2COC3)cc(OC)c1CN1CCC(C#Cc2ccc3c(c2)C(=O)N(C2CCC(=O)NC2=O)C3)CC1` (stereo not drawn) [Compound D370], under 10 nM; under `COc1cc(-c2cn(C)c(=O)c3c2CCC3)cc(OC)c1CN1CCC(C#Cc2ccc3c(c2)C(=O)N(C2CCC(=O)NC2=O)C3)CC1` (stereo not drawn) [Compound D371], under 10 nM.

Consider `COc1cc(-c2cn(C)c(=O)c3c2COC3)cc(OC)c1CN1CCC(CN2CCC3(CC2)CN(c2ccc4c(c2)C(=O)N(C2CCC(=O)NC2=O)C4)C3)CC1` (stereo not drawn) [Compound D372], for which the IC50 is under 10 nM. Still for that read-out and setting: next, `COc1cc(-c2cn(C)c(=O)c3c2COC3)cc(OC)c1CN1CCN(c2ccc3c(c2)C(=O)N(C2CCC(=O)NC2=O)C3=O)CC1` (stereo not drawn) [Compound D373]: under 10 nM; `COc1cc(-c2cn(C)c(=O)c3c2CCC3)cc(OC)c1-c1ccc2c(c1)C(=O)N(C1CCC(=O)NC1=O)C2` (stereo not drawn) [Compound D374]: under 10 nM; `COc1cc(-c2cn(C)c(=O)c3c2CCC3)cc(OC)c1CN1CCC2(CC1)CN(c1cccc(N3CCC(=O)NC3=O)c1)C2` [Compound D375]: at least 1000 nM.

The next test deals with BRD9 bromodomain (Homo sapiens (Human), UniProt Q9H8M2). Briefly: BRD9 bromodomain TR-FRET competition binding assay.
Sequence of BRD9 bromodomain (Q9H8M2 133-239): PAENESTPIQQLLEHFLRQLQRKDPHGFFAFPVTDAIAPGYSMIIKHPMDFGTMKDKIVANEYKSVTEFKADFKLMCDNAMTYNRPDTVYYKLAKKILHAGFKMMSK
Conditions: not given
The procedure: Procedure: His-Flag-BRD9 (P133-K239; Swiss Prot Q9H8M2; SEQ ID NO:1 mgsshhhhhhenlyfq/gdykddddkgslevlfqg/[…] […]) was cloned, expressed, purified, and then treated with TEV protease. Cleaved His tag was removed by purification. The binding of a biotinylated small molecule ligand of BRD9 was assessed via the LANCE® TR-FRET platform (PerkinElmer), and the compounds were assayed for inhibitory activity against this interaction.
Results: A mixture of biotinylated-ligand and SureLight™ Allophycocyanin-Streptavidin (APC-SA, PerkinElmer AD0201) in 50 mM HEPES (pH 7.4), 50 mM NaCl, 1 mM TCEP (pH 7), 0.01% (v/v) Tween-20, 0.01% (w/v) bovine serum albumin was added to a white 384-well PerkinElmer Proxiplate Plus plate. DMSO or 3-fold serially diluted compounds were then added to the Proxiplate followed by addition of Flag-BRD9. After a 10-minute incubation at room temperature, Eu—W1024 anti-FLAG (PerkinElmer, AD0273) was added. The final reaction mixture that contained 3.75 nM biotinylated ligand, 3 nM Flag-BRD9, 7.5 nM SureLight™ Allophycocyanin-Streptavidin, and 0.2 nM Eu—W1024 anti-FLAG was incubated at room temperature for 90 minutes.
The plates were then read on a PerkinElmer Envision plate reader to determine the ratio of emission at 665 nm over 615 nm. […]
Background: Time-resolved FRET reads energy transfer from a long-lived donor to a nearby acceptor.
`COc1cc(-c2cn(C)c(=O)c3c2CNC(C(=O)O)C3)cc(OC)c1CN(C)C` (stereo not drawn) [Compound B2, 8-[4-[(dimethylamino)methyl]-3,5-dimethoxyphenyl]-6-methyl-5-oxo-1,2,3,4,5,6-hexahydro-2,6-naphthyridine-3-carboxylic acid] had an IC50 of over 1000 nM. Same read-out and setting: next, `CNC(=O)C1Cc2c(c(-c3cc(OC)c(CN(C)C)c(OC)c3)cn(C)c2=O)CN1` (stereo not drawn) [Compound B3, 8-[4-[(dimethylamino)methyl]-3,5-dimethoxyphenyl]-N,6-dimethyl-5-oxo-1,2,3,4,5,6-hexahydro-2,6-naphthyridine-3-carboxamide]: over 1000 nM; `COc1cc(-c2cn(C)c(=O)c3c2CNC(C(N)=O)C3)cc(OC)c1CN(C)C` (stereo not drawn) [Compound B4, 8-[4-[(dimethylamino)methyl]-3,5-dimethoxyphenyl]-6-methyl-5-oxo-1,2,3,4,5,6-hexahydro-2,6-naphthyridine-3-carboxamide]: over 1000 nM; `CCNC(=O)N1CCc2c(-c3cc(OC)c(CN(C)C)c(OC)c3)cn(C)c(=O)c2C1` [Compound B5, 5-(4-((dimethylamino)methyl)-3,5-dimethoxyphenyl)-N-ethyl-7-methyl-8-oxo-3,4,7,8-tetrahydro-2,7-naphthyridine-2 (1H)-carboxamide]: under 10 nM. Same read-out and setting: under `COc1cc(-c2cn(C)c(=O)c3c2CCN(C(=O)N(C)C)C3)cc(OC)c1CN(C)C` [Compound B6, 5-(4-((dimethylamino)methyl)-3,5-dimethoxyphenyl)-N,N,7-trimethyl-8-oxo-3,4,7,8-tetrahydro-2,7-naphthyridine-2 (1H)-carboxamide] stands over 100 nM; under `CCCCNC(=O)N1CCc2c(-c3cc(OC)c(CN(C)C)c(OC)c3)cn(C)c(=O)c2C1` [Compound B7, N-butyl-5-(4-((dimethylamino)methyl)-3,5-dimethoxyphenyl)-7-methyl-8-oxo-3,4,7,8-tetrahydro-2,7-naphthyridine-2 (1H)-carboxamide], under 10 nM; under `COc1cc(-c2cn(C)c(=O)c3c2CCN(C(=O)NC2CC2)C3)cc(OC)c1CN(C)C` [Compound B8, N-cyclopropyl-5-(4-((dimethylamino)methyl)-3,5-dimethoxyphenyl)-7-methyl-8-oxo-3,4,7,8-tetrahydro-2,7-naphthyridine-2 (1H)-carboxamide], over 10 nM. For the molecule `CNC(=O)N1CCc2c(-c3cc(OC)c(CN(C)C)c(OC)c3)cn(C)c(=O)c2C1` [Compound B9, 5-(4-((dimethylamino)methyl)-3,5-dimethoxyphenyl)-N,7-dimethyl-8-oxo-3,4,7,8-tetrahydro-2,7-naphthyridine-2 (1H)-carboxamide], the IC50 is under 10 nM. Still for that read-out and setting: next, `COc1cc(-c2cn(C)c(=O)c3c2CCN(CCO)C3)cc(OC)c1CN(C)C` [Compound B10, 4-[4-[(dimethylamino)methyl]-3,5-dimethoxyphenyl]-7-(2-hydroxyethyl)-2-methyl-1,2,5,6,7,8-hexahydro-2,7-naphthyridin-1-one]: over 1000 nM.

`CCOC(=O)N1CCc2c(-c3cc(OC)c(CN(C)C)c(OC)c3)cn(C)c(=O)c2C1` [Compound B11, ethyl 5-[4-[(dimethylamino)methyl]-3,5-dimethoxyphenyl]-7-methyl-8-oxo-1,2,3,4,7,8-hexahydro-2,7-naphthyridine-2-carboxylate] showed an IC50 of over 1000 nM. The same measure, in the same setting: under `CCC(=O)N1CCc2c(-c3cc(OC)c(CN(C)C)c(OC)c3)cn(C)c(=O)c2C1` [Compound B12] stands over 1000 nM; under `COc1cc(-c2cn(C)c(=O)c3c2CCN(C(N)=O)C3)cc(OC)c1CN(C)C` [Compound B13, 5-[4-[(dimethylamino)methyl]-3,5-dimethoxyphenyl]-7-methyl-8-oxo-1,2,3,4,7,8-hexahydro-2,7-naphthyridine-2-carboxamide], over 10 nM.

Consider `COc1cc(-c2cn(C)c(=O)c3c2CCN(C(C)=O)C3)cc(OC)c1CN(C)C` [Compound B14, 7-acetyl-4-[4-[(dimethylamino)methyl]-3,5-dimethoxyphenyl]-2-methyl-1,2,5,6,7,8-hexahydro-2,7-naphthyridin-1-one], for which the IC50 is over 1000 nM. Same read-out and setting: next, `CCN1CCc2c(-c3cc(OC)c(CN(C)C)c(OC)c3)cn(C)c(=O)c2C1` [Compound B15, 4-[4-[(dimethylamino)methyl]-3,5-dimethoxyphenyl]-7-ethyl-2-methyl-1,2,5,6,7,8-hexahydro-2,7-naphthyridin-1-one formic acid]: over 1000 nM. The same measure, in the same setting: next, `COc1cc(-c2cn(C)c(=O)c3c2CCN(C)C3)cc(OC)c1CN(C)C` [Compound B16, 4-[4-[(dimethylamino)methyl]-3,5-dimethoxyphenyl]-2,7-dimethyl-1,2,5,6,7,8-hexahydro-2,7-naphthyridin-1-one formic acid]: over 1000 nM.
